Where two headings read alike, the source gives them in different places.
Tests used:
Cox-1 [1] = molecular target: T1, Cox-1 (Homo sapiens, UniProt P23219); experiment: U937 cell assay, Cox-1 activity by EIA; type: cell-based; design: host or cells: U937 cells; conditions: U937 cells
Experimental: (§1) To compare the mean responses of the treatment groups, analysis of variance was applied. Percent inhibition values were determined by comparing the individual treatment mean values to the mean of the control group. Linear regression was used to estimate IC50's/ED50's in appropriate assays.
(§2) EIA reagents for prostaglandin determination were purchased from Perseptive Diagnostics, (Cambridge, MA). PGE2 levels in lavage fluids were determined after the samples were dried under nitrogen and reconstituted with assay buffer. PGE2 levels in enzyme assays or cell culture media were measured against standards prepared in the same milieu. The immunoassays were conducted as recommended by the manufacturer. The EIA was conducted in 96 well microtiter plates (Nunc Roskilde, Denmark) and optical density was measured using a microplate reader (Vmax, Molecular Devices Corp., Menlo Park, CA).
(§3) Human amnionic WISH cells were grown to 80% confluence in 48 well plates. Following removal of the growth medium and two washings with Gey's Balanced Salt Solution, 5 ng IL-1 β/ml (UBI, Lake Placid, NY) was added to the cells with or without test compound in DMSO (0.01% v/v) in Neuman-Tytell Serumless Medium (GIBCO, Grand Island, NY). Following an 18 hour incubation to allow for the maximal induction of PGHS-2, the conditioned medium was removed and assayed for PGE2 activity by EIA analysis as described above.
(§4) U937 (ATCC, Rockville, MD) cells were grown in a similar fashion to the WISH cells. After incubation, the conditioned medium was removed and assayed for Cox-1 activity by EIA analysis as described above. U937 values indicate percent inhibition at the particular micromolar dose level while parenthetical values indicate IC50 values. Wish cell values indicate Cox-2 pecent inhibition at the particular micromolar dose level.

Cox-1 [2] = molecular target: T1, Cox-1; experiment: Recombinant human PGHS-1 (Cox-1) enzyme assay, PGE2 by EIA; type: biochemical; design: made in house; host or cells: baculovirus/Sf9 insect cells (microsomes); conditions: microsomes, 60 min preincubation, 10 µM arachidonic acid, read-out: RHUCX1 Cox-1 percent inhibition
Experimental: as §1, §2
(§5) Inhibition of prostaglandin biosynthesis in vitro was evaluated using recombinant human Cox-1 (r-hu Cox1) and Cox-2 (r-hu Cox2) enzyme assays. […] The reaction was allowed to run for 2.5 minutes at room temperature prior to quenching with HCl and neutralization with NaOH. PGE2 production in the presence and absence of the drug was determined by EIA analysis. The EIA was conducted in 96 well microtiter plates (Nunc Roskilde, Denmark) and optical density was measured using a microplate reader (Vmax, Molecular Devices Corp., Menlo Park, CA). EIA reagents for prostaglandin determination were purchased from Perseptive Diagnostics (Cambridge, MA). PGE2 levels were measured against standards prepared in the same milieu. The immunoassays were conducted as recommended by the manufacturer. The compounds are designated by the Example Number. […] Values for Cox-2 inhibition that are parenthetical indicate IC50 values.

Cox-2 [3] = molecular target: T2, Cox-2 (Homo sapiens, UniProt P35354); experiment: Recombinant human PGHS-2 (Cox-2) enzyme assay, PGE2 by EIA; type: biochemical; design: made in house; host or cells: baculovirus/Sf9 insect cells (microsomes); conditions: microsomes, 60 min preincubation, 10 µM arachidonic acid; for IC50: read-out: RHUCX2 Cox-2 IC50 (parenthetical values); for inhibition at 0.1 µM: at 100 nM; for inhibition at 0.1 µM / inhibition at 1 µM: read-out: RHUCX2 Cox-2 percent inhibition; for inhibition at 1 µM: at 1000 nM
T2 sequence (P35354 18-604): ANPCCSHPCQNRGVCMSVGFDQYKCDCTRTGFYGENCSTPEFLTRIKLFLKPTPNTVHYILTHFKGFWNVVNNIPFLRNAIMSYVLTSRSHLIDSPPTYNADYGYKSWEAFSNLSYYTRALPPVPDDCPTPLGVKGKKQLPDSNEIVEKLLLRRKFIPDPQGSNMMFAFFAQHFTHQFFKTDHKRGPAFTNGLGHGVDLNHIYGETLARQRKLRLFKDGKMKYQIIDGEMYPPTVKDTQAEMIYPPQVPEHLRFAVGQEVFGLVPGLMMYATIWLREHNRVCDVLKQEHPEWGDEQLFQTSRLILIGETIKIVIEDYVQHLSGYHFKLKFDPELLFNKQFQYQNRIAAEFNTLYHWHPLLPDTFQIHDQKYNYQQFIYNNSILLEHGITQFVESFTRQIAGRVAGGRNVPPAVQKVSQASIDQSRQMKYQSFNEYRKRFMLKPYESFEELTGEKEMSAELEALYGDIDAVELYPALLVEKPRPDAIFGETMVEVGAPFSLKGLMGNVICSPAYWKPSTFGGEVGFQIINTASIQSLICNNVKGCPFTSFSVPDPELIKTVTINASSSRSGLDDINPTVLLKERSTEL
Experimental: as §1, §2, §5

Cox-2 [4] = molecular target: T2, Cox-2; experiment: IL-1β induced PGE2 production in WISH cells; type: cell-based; design: endogenous in cells; host or cells: human amnionic WISH cells induced with IL-1β
Experimental: as §1, §2, §3
as §4, with “Wish cell values indicate Cox-2 pecent inhibition at the particular micromolar dose level.” left out

[5] = system: prostaglandin biosynthesis; experiment: Rat carrageenan pleural inflammation model (CIP); type: in vivo, Sprague-Dawley rats; conditions: 10 milligrams per kilogram body weight, oral, 30 minutes before intrapleural carrageenan; lavage after four hours
Experimental: as §1, §2
Pleural inflammation was induced in male adrenalectomized Sprague-Dawley rats following the method of Vinegar et al., Fed. Proc. 1976, 35, 2447-2456. Animals were orally dosed with experimental compounds, in 0.2% HPMC, 30 minutes prior to the intrapleural injection of 2% lambda carrageenan (Sigma Chemical Co., St. Louis MO). Four hours later the animals were euthanized and the pleural cavities lavaged with ice cold saline. […] Eicosanoids were determined by EIA as described above. […]

[6] = U-937, read-out: U937 percent inhibition

T1 sequence (P23219 24-599): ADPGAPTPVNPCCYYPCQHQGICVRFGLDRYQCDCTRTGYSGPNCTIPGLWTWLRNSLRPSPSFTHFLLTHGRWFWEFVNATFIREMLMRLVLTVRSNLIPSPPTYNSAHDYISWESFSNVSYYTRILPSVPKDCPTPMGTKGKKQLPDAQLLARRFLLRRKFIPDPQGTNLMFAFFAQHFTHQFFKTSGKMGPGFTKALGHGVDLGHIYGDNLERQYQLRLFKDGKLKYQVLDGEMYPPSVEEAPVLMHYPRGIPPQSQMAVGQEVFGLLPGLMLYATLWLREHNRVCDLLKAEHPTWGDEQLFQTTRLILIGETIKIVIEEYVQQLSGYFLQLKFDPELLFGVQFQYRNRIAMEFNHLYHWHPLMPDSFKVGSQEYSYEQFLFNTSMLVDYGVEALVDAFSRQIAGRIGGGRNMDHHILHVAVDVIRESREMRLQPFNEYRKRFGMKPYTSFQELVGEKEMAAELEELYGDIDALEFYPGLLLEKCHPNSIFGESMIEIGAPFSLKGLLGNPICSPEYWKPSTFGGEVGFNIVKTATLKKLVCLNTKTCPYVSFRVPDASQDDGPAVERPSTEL

`CS(=O)(=O)c1ccc(-c2cc(=O)n(CC3CCCCC3)nc2-c2ccc(F)cc2)cc1` [Example 15, 2-Cyclohexylmethyl-5-(4-methylsulfonylphenyl)-6-(4-fluorophenyl)-3(2H)-pyridazinone] gave an inhibition at 0.01 µM (Cox-1 [1]; U-937, at 0.01 µM, read-out: U937 percent inhibition) of 33%, an inhibition at 100 µM (Cox-1 [2]) of 52% and an IC50 (Cox-2 [3]) of 5 nM. For the same molecule, the “Wish Cox-2 percent inhibition” value (Cox-2 [4]; at 0.001 (head:)) was 43 @ 0.001%.
Molecule `CC(C)=CCn1nc(-c2ccc(F)cc2)c(-c2ccc(S(C)(=O)=O)cc2)cc1=O` [Example 21, 2-(3-Methylbuten-2-yl)-5-(4-methylsulfonylphenyl)-6-(4-fluorophenyl)-3(2H)-pyridazinone] has an inhibition at 10 µM (Cox-1 [1]; [6]) of 80%, an inhibition at 100 µM (Cox-1 [2]) of 62% and an inhibition at 0.1 µM (Cox-2 [3]) of 92%.
In the case of `CS(=O)(=O)c1ccc(-c2cc(=O)n(Cc3ccc(F)cc3)nc2-c2ccc(F)cc2)cc1` [Example 10, 2-(4-Fluorobenzyl)-5-(4-methylsulfonylphenyl)-6-(4-fluorophenyl)-3(2H)-pyridazinone], the inhibition at 10 µM (Cox-1 [1]; [6]) is reported as 62%, the inhibition at 100 µM (Cox-1 [2]) is reported as 2% and the inhibition at 0.1 µM (Cox-2 [3]) is reported as 65%.
`CS(=O)(=O)c1ccc(-c2cc(=O)n(C3CCCCC3)nc2-c2ccc(F)cc2)cc1` [Example 18, 2-Cyclohexyl-5-(4-methylsulfonylphenyl)-6-(4-fluorophenyl)-3(2H)-pyridazinone] was tested, and the inhibition at 100 µM (Cox-1 [2]) was 16% and the inhibition at 0.1 µM (Cox-2 [3]) was 49%.
`C#CCn1nc(-c2ccc(F)cc2)c(-c2ccc(S(C)(=O)=O)cc2)cc1=O` [Example 17, 2-Propargyl-5-(4-methylsulfonylphenyl)-6-(4-fluorophenyl)-3(2H)-pyridazinone] showed an inhibition at 10 µM (Cox-1 [1]; [6]) of 41%, an inhibition at 100 µM (Cox-1 [2]) of 0% and an IC50 (Cox-2 [3]) of 850 nM. The “Wish Cox-2 percent inhibition” value (Cox-2 [4]) was 54 @ 1%.
With `CS(=O)(=O)c1ccc(-c2cc(=O)n(Cc3ccccc3)nc2-c2ccc(F)cc2)cc1` [Example 7, 2-Benzyl-5-(4-methylsulfonylphenyl)-6-(4-fluorophenyl)-3(2H)-pyridazinone] the IC50 (Cox-1 [1]; read-out: U937 IC50 (parenthetical values)) was 870 nM, the “CIP Inh @10mpk” value [5] was 22% and the inhibition at 100 µM (Cox-1 [2]) was 4%. For the same molecule, the IC50 (Cox-2 [3]) was 20 nM.
For `CS(=O)(=O)c1ccc(-c2cc(=O)n(CC(F)(F)F)nc2-c2ccc(F)cc2)cc1` [Example 22, 2-(2,2,2-Trifluoroethyl)-5-(4-methylsulfonylphenyl)-6-(4-fluorophenyl)-3(2H)-pyridazinone], the inhibition at 100 µM (Cox-1 [2]) was 0% and the inhibition at 1 µM (Cox-2 [3]) was 46%.
`CCCCn1nc(-c2ccc(F)cc2)c(-c2ccc(S(C)(=O)=O)cc2)cc1=O` [Example 11, 2-(n-Butyl)-5-(4-methylsulfonylphenyl)-6-(4-fluorophenyl)-3(2H)-pyridazinone] gave an inhibition at 100 µM (Cox-1 [2]) of 19% and an inhibition at 0.1 µM (Cox-2 [3]) of 51%.
In the case of `CS(=O)(=O)c1ccc(-c2cc(=O)n(CC3CCCC3)nc2-c2ccc(F)cc2)cc1` [Example 24, 2-Cyclopentylmethyl-5-(4-methylsulfonylphenyl)-6-(4-fluorophenyl)-3(2H)-pyridazinone], the inhibition at 100 µM (Cox-1 [2]) is reported as 23% and the inhibition at 0.1 µM (Cox-2 [3]) is reported as 87%.
With `CC(c1ccc(F)cc1)n1nc(-c2ccc(F)cc2)c(-c2ccc(S(C)(=O)=O)cc2)cc1=O` (stereo not drawn) [Example 12, 2-(4-Fluoro-α-methylbenzyl)-5-(4-methylsulfonylphenyl)-6-(4-fluorophenyl)-3(2H)-pyridazinone] the inhibition at 100 µM (Cox-1 [2]) was 8% and the IC50 (Cox-2 [3]) was 740 nM.
For `CC#CCn1nc(-c2ccc(F)cc2)c(-c2ccc(S(C)(=O)=O)cc2)cc1=O` [Example 19, 2-(2-Butyn-1-yl)-5-(4-methylsulfonylphenyl)-6-(4-fluorophenyl)-3(2H)-pyridazinone], the inhibition at 100 µM (Cox-1 [2]) was 3% and the inhibition at 1 µM (Cox-2 [3]) was 66%.
`CS(=O)(=O)c1ccc(-c2cc(=O)n(C3CCCC3)nc2-c2ccc(F)cc2)cc1` [Example 25, 2-Cyclopentyl-5-(4-methylsulfonylphenyl)-6-(4-fluorophenyl)-3(2H)-pyridazinone] gave an inhibition at 100 µM (Cox-1 [2]) of 7% and an inhibition at 0.1 µM (Cox-2 [3]) of 42%.
With `CS(=O)(=O)c1ccc(-c2cc(=O)n(CC3CC3)nc2-c2ccc(F)cc2)cc1` [Example 23, 2-(Cyclopropylmethyl)-5-(4-methylsulfonylphenyl)-6-(4-fluorophenyl)-3(2H)-pyridazinone] the inhibition at 10 µM (Cox-1 [1]; [6]) was 30%, the “CIP Inh @10mpk” value [5] was 41% and the inhibition at 100 µM (Cox-1 [2]) was 24%. For the same molecule, the IC50 (Cox-2 [3]) was 250 nM and the “Wish Cox-2 percent inhibition” value (Cox-2 [4]) was 62 @ 1%.
In the case of `CCCCCn1nc(-c2ccc(F)cc2)c(-c2ccc(S(C)(=O)=O)cc2)cc1=O` [Example 14, 2-(n-Pentyl)-5-(4-methylsulfonylphenyl)-6-(4-fluorophenyl)-3(2H)-pyridazinone], the inhibition at 1 µM (Cox-1 [1]; U-937, at 1 µM, read-out: U937 percent inhibition) is reported as 42%, the inhibition at 100 µM (Cox-1 [2]) is reported as 23% and the inhibition at 0.1 µM (Cox-2 [3]) is reported as 66%. For the same molecule, the “Wish Cox-2 percent inhibition” value (Cox-2 [4]; at 0.00001 (head:)) was 34 @ 0.00001%.
`CS(=O)(=O)c1ccc(-c2cc(=O)n(CC3CCC3)nc2-c2ccc(F)cc2)cc1` [Example 20, 2-(Cyclobutylmethyl)-5-(4-methylsulfonylphenyl)-6-(4-fluorophenyl)-3(2H)-pyridazinone] was tested, and the inhibition at 10 µM (Cox-1 [1]; [6]) was 60%.
